Data on 8 compounds can be found in patent US6503881B2 (priority 1996, dated 2003).

For assay [1], the system named is microorganisms with acquired resistance.
The test system of assay [2] is bacteria.
Assay [3] concerns inherently resistant microorganisms.
The subject of assay [4] is bacterial isolates. Particulars: for FIC: Tobramycin + peptide.
Setting [5] is: S. haemolyticus SH8463, pair Erythromycin / MBI 31.
Setting [6] is: S. haemolyticus SH8472, pair Erythromycin / MBI 31.
[7] abbreviates: S. haemolyticus SH8564, pair Erythromycin / MBI 31.
Where [8] appears, read: S. haemolyticus SH8575, pair Erythromycin / MBI 31.
Where [9] appears, read: peptide + Tobramycin, S. maltophilia SMA029.
The mark [10] stands for this setting: peptide + Tobramycin, S. maltophilia SMA030.
[11] abbreviates: S. maltophilia SMA018, pair Amikacin / MBI 11B16CN.
Where [12] appears, read: S. maltophilia SMA022, pair Amikacin / MBI 11B16CN.

Converted amounts (≈) assume the structure as drawn. Read-outs that look alike come from different tables or passages of the source.

Consider `CC[C@H]1OC(=O)[C@H](C)[C@@H](O[C@H]2C[C@@](C)(OC)[C@@H](O)[C@H](C)O2)[C@H](C)[C@@H](O[C@@H]2O[C@H](C)C[C@H](N(C)C)[C@H]2O)[C@](C)(O)C[C@@H](C)C(=O)[C@H](C)[C@@H](O)[C@]1(C)O` [Erythromycin, reference compound], for which the MIC comb. in assay [1] (S. aureus SA7609, pair Erythromycin / MBI 26) came out at 0.5 µg/mL (≈ 0.681 µM); in assay [1] (S. aureus SA7795, pair Erythromycin / MBI 26), 1 µg/mL (≈ 1.36 µM); in assay [1] (S. aureus SA7795, pair Erythromycin / MBI 31), 4 µg/mL (≈ 5.45 µM); in assay [1] (S. aureus SA7796, pair Erythromycin / MBI 26), 1 µg/mL (≈ 1.36 µM); in assay [1] (S. aureus SA7796, pair Erythromycin / MBI 31), 2 µg/mL (≈ 2.73 µM); in assay [1] (S. aureus SA7818, pair Erythromycin / MBI 31), 2 µg/mL (≈ 2.73 µM). Besides, the MIC comb. turned out to be 0.5 µg/mL (≈ 0.681 µM) in assay [1] (S. epidermidis SE8410, pair Erythromycin / MBI 26); 0.5 µg/mL (≈ 0.681 µM) in assay [1] (S. epidermidis SE8410, pair Erythromycin / MBI 31); 0.5 µg/mL (≈ 0.681 µM) in assay [1] (S. epidermidis SE8411, pair Erythromycin / MBI 26); 0.5 µg/mL (≈ 0.681 µM) in assay [1] (S. epidermidis SE8411, pair Erythromycin / MBI 31); 0.5 µg/mL (≈ 0.681 µM) in assay [1] (S. epidermidis SE8503, pair Erythromycin / MBI 26); 0.5 µg/mL (≈ 0.681 µM) in assay [1] (S. epidermidis SE8503, pair Erythromycin / MBI 31). Besides, the MIC comb. in assay [1] (S. epidermidis SE8565, pair Erythromycin / MBI 26) was determined as 0.5 µg/mL (≈ 0.681 µM); in assay [1] (S. epidermidis SE8565, pair Erythromycin / MBI 31), 0.5 µg/mL (≈ 0.681 µM); in assay [1] (S. haemolyticus SH8463, pair Erythromycin / MBI 26), 0.5 µg/mL (≈ 0.681 µM); in assay [1] (setting [5]), 0.5 µg/mL (≈ 0.681 µM); in assay [1] (S. haemolyticus SH8472, pair Erythromycin / MBI 26) it was 0.5 µg/mL (≈ 0.681 µM); in assay [1] (setting [6]) it was 0.5 µg/mL (≈ 0.681 µM). For the same compound, the MIC comb. is 2 µg/mL (≈ 2.73 µM) in assay [1] (setting [7]); 2 µg/mL (≈ 2.73 µM) in assay [1] (S. haemolyticus SH8575, pair Erythromycin / MBI 26); 2 µg/mL (≈ 2.73 µM) in assay [1] (setting [8]); 0.5 µg/mL (≈ 0.681 µM) in assay [1] (S. haemolyticus SH8578, pair Erythromycin / MBI 26); 0.5 µg/mL (≈ 0.681 µM) in assay [1] (S. haemolyticus SH8578, pair Erythromycin / MBI 31); 0.5 µg/mL (≈ 0.681 µM) in assay [1] (S. haemolyticus SH8597, pair Erythromycin / MBI 26).

Regarding “G K P R P Y S P I P T S P R P I R Y [MBI 31]”, the Peptide MIC in assay [1] (S. aureus SA7796, pair Methicillin / MBI 31) stood at 16 µg/mL; in assay [1] (S. aureus SA7797, pair Methicillin / MBI 31), 16 µg/mL; in assay [1] (S. aureus SA7823, pair Methicillin / MBI 31), 0.5 µg/mL; in assay [1] (S. aureus SA7834, pair Methicillin / MBI 31) it was 32 µg/mL; in assay [1] (S. aureus SA7835, pair Methicillin / MBI 31), 16 µg/mL; in assay [1] (setting [5]), 0.5 µg/mL. For the same compound, the Peptide MIC in assay [1] (setting [6]), in assay [1] (setting [7]) and in assay [1] (setting [8]) was 0.5 µg/mL in each case.

With I L K K F P F F P F R R K [MBI 11A1CN], the MIC in assay [2] (A. calcoaceticus AC002) is 16 µg/mL; in assay [2] (E. cloacae ECL007), >128 µg/mL; in assay [2] (E. coli ECO002), 32 µg/mL; in assay [2] (E. faecalis EFS002), 32 µg/mL; in assay [2] (E. faecium EFM002), 1 µg/mL; in assay [2] (H. influenzae HIN002) it was >128 µg/mL. The MIC was >128 µg/mL in assay [2] (K. pneumoniae KP002); >128 µg/mL in assay [2] (P. aeruginosa PA004); >128 µg/mL in assay [2] (P. vulgaris SBPV1); 8 µg/mL in assay [2] (S. aureus SA005); 16 µg/mL in assay [2] (S. epidermidis SE002); >128 µg/mL in assay [2] (S. maltophilia SMA002). For the same compound, the MIC in assay [2] (S. marcescens SBSM2) and in assay [2] (S. pneumoniae SBSPN2) was >128 µg/mL each time. The results for the “Peptide MIC + Tobramycin” value in assay [1] (P. aeruginosa PA026) and in assay [1] (S. maltophilia SMA030) were 0.125 µg/mL and 64 µg/mL, respectively. Besides, the “Ciprofloxacin MIC + Peptide” value in assay [1] (S. aureus SA10) and in assay [1] (S. aureus SA25) was 0.125 µg/mL in each case. The “Peptide MIC + Ciprofloxacin” value in assay [1] (S. aureus SA10) turned out to be 64 µg/mL. For the same compound, the “Tobramycin MIC + Peptide” value in assay [1] (S. maltophilia SMA030) worked out at 2 µg/mL. The FIC in assay [1] (peptide + Ciprofloxacin, S. aureus SA25) was 0.53; in assay [1] (setting [9]), 0.16; in assay [1] (setting [10]) it was 0.27.

For I L R R W P W W P W R R K [MBI 11B1CN], the MIC in assay [2] (A. calcoaceticus AC001) was 32 µg/mL; in assay [2] (E. cloacae ECL007), >128 µg/mL; in assay [2] (E. coli ECO003) it was 8 µg/mL; in assay [2] (E. faecalis EFS004) it was 8 µg/mL; in assay [2] (E. faecium EFM002) it was 2 µg/mL; in assay [2] (K. pneumoniae KP002) it was 64 µg/mL. The MIC in assay [2] (P. aeruginosa PA005) is >128 µg/mL; in assay [2] (S. aureus SA005) it was 2 µg/mL; in assay [2] (S. epidermidis SE001) it was 2 µg/mL; in assay [2] (S. maltophilia SMA001), 64 µg/mL; in assay [2] (S. marcescens SMS004), >128 µg/mL. Further, the “Peptide MIC + Vancomycin” value in assay [1] (E. faecalis EFS003) was 32 µg/mL; in assay [1] (E. faecalis EFS006), 0.25 µg/mL; in assay [1] (E. faecalis EFS010), 8 µg/mL; in assay [1] (E. faecalis EFS014), 2 µg/mL; in assay [1] (E. faecium EFM004), 16 µg/mL; in assay [1] (E. faecium EFM007), 16 µg/mL. For the same compound, the “Peptide MIC + Vancomycin” value in assay [1] (E. faecium EFM009) is 8 µg/mL. In addition, the “Vancomycin MIC + Peptide” value came out at 4 µg/mL in assay [1] (E. faecalis EFS003); 4 µg/mL in assay [1] (E. faecalis EFS006); 1 µg/mL in assay [1] (E. faecalis EFS010); 1 µg/mL in assay [1] (E. faecalis EFS014); 0.5 µg/mL in assay [1] (E. faecium EFM004); 4 µg/mL in assay [1] (E. faecium EFM007). Moreover, the “Vancomycin MIC + Peptide” value in assay [1] (E. faecium EFM009) amounted to 4 µg/mL. In addition, the “Peptide MIC Alone” value in assay [1] (E. faecalis EFS003 (8. Vancomycin)) was >128 µg/mL; in assay [1] (E. faecalis EFS006 (8. Vancomycin)), 128 µg/mL; in assay [1] (E. faecalis EFS010 (8. Vancomycin)), 128 µg/mL; in assay [1] (E. faecalis EFS014 (8. Vancomycin)), 4 µg/mL; in assay [1] (E. faecium EFM004 (8. Vancomycin)) it was 32 µg/mL; in assay [1] (E. faecium EFM007 (8. Vancomycin)) it was 64 µg/mL. The “Peptide MIC Alone” value in assay [1] (E. faecium EFM009 (8. Vancomycin)) was determined as 64 µg/mL. Besides, the FIC in assay [1] (peptide + Vancomycin, E. faecalis EFS003) came to 0.63; in assay [1] (peptide + Vancomycin, E. faecalis EFS006), 0.50; in assay [1] (peptide + Vancomycin, E. faecalis EFS010) it was 0.13; in assay [1] (peptide + Vancomycin, E. faecalis EFS014), 0.51; in assay [1] (peptide + Vancomycin, E. faecium EFM004) it was 0.50; in assay [1] (peptide + Vancomycin, E. faecium EFM007) it was 0.28. In addition, the FIC in assay [1] (peptide + Vancomycin, E. faecium EFM009) amounted to 0.25.

For “ILRWPWWPWRRKIMILKKAGS [MBI 11B16CN]”, the MIC is 4 µg/mL in assay [2] (A. calcoaceticus AC002); >128 µg/mL in assay [2] (E. cloacae ECL007); 16 µg/mL in assay [2] (E. coli ECO005); 2 µg/mL in assay [2] (E. faecalis EFS001); 16 µg/mL in assay [2] (K. pneumoniae KP001); >128 µg/mL in assay [2] (P. aeruginosa PA004). For the same compound, the MIC in assay [2] (S. aureus SA093) is 2 µg/mL; in assay [2] (S. epidermidis SE010), 4 µg/mL; in assay [2] (S. maltophilia SMA002), 32 µg/mL; in assay [2] (S. marcescens SMS003), >128 µg/mL. For the same compound, the “MIC Alone” value in assay [3] (A baumannii ABI001, pair Amikacin / MBI 11B16CN) was 32 µg/mL; in assay [3] (setting [11]), 32 µg/mL; in assay [3] (setting [12]) it was >128 µg/mL. Further, the FIC in assay [3] (setting [11]) was 0.31; in assay [3] (setting [12]), 0.14. Further, the MIC in combination in assay [3] (setting [11]) was 8 µg/mL; in assay [3] (setting [12]), 32 µg/mL.

In the case of “KWKLFIKKLTPAVKKVLLTGLPALIS [MBI 29F1]”, in assay [3] (S. aureus SA025 MRSA, pair Amikacin / MBI 29F1), the “MIC Alone” value stood at 1 µg/mL.

In the case of R L A R I V V I R V A R [REWH 53A5CN], the “Peptide MIC + Tobramycin” value in assay [1] (S. maltophilia SMA029) was 32 µg/mL; in assay [1] (S. maltophilia SMA030), 32 µg/mL; in assay [4] (S. aureus SA014 MRSA), 8 µg/mL; in assay [4] (S. maltophilia SMA029), 16 µg/mL; in assay [4] (S. maltophilia SMA030), 32 µg/mL. Also, the “Tobramycin MIC + Peptide” value in assay [1] (S. maltophilia SMA029) amounted to 0.25 µg/mL; in assay [1] (S. maltophilia SMA030) it was 0.25 µg/mL; in assay [4] (S. aureus SA014 MRSA), 0.125 µg/mL; in assay [4] (S. maltophilia SMA029) it was 4 µg/mL; in assay [4] (S. maltophilia SMA030), 0.25 µg/mL. Moreover, the “Peptide MIC Alone” value in assay [1] (S. maltophilia SMA029 (7. Tobramycin)) is >128 µg/mL; in assay [1] (S. maltophilia SMA030 (7. Tobramycin)) it was >128 µg/mL; in assay [4] (S. aureus SA014 MRSA), 16 µg/mL; in assay [4] (S. maltophilia SMA029), >128 µg/mL; in assay [4] (S. maltophilia SMA030), >128 µg/mL. The FIC is 0.13 in assay [1] (setting [9]); 0.13 in assay [1] (setting [10]); 0.50 in assay [4] (S. aureus SA014 MRSA); 0.08 in assay [4] (S. maltophilia SMA029); 0.13 in assay [4] (S. maltophilia SMA030).

As for Teicoplanin [reference compound], the “MIC Alone” value in assay [3] (E. gallinarum 97046 VanC, pair Teicoplanin / MBI 26) was 1 µg/mL; in assay [3] (E. gallinarum 97047 VanC, pair Teicoplanin / MBI 26) it was 8 µg/mL; in assay [3] (E. gallinarum 97049 VanC, pair Teicoplanin / MBI 26), 2 µg/mL.
